Key:
Bifidobacteria = test: Faecal fermentation in dialysis tubes, FISH with Bifl 64 probe; assay type: cell-based; settings: t = 72 h versus t = 0
Experimental: (§1) Pooled fresh faeces obtained from 4-5 healthy adults was used to perform fermentation studies as described in Appendix I of WO 2004/000340. The experiments were performed in duplo. The faeces, diluted 1:5 into McBain and Farlane medium, was put into dialysis tubes and suspended in bottles with buffer under anaerobic conditions and was first incubated at 37° C. for 16 h for reasons of adaptation before inoculating them with the substrates according to the table below at t=0.
(§2) The test substrates were added once a day (at t=0, 24, and 48 hours). Buffer was refreshed once a day. A sample was taken at t=0 and t=72. This relatively long period was used since shifts in bacterial populations are relatively slow compared to the shifts in short chain acids formed.
(§3) The sphingosine was dissolved in ethanol (stock 10 mg/ml). 30 μl of a stock of 10 mg/ml was added to the dialysis tube.
(§4) The samples were analysed by Fluorescence In Situ Hybridisation (FISH) as described in Franks, A. H., et al., Appl. Environ. Microbiol., 1998. 64(9): p. […] Total number of bacteria was determined by DAPI staining. The ratio Firmicutes/Bacteroidetes was set at the percentage of bacteria detected by the Chis150, Clit135, Erec482 and Lab158 probe, divided by the percentage of bacteria […] by the Bac303 probe. The bacteria detected by the Erec482 group are usually the largest group of Firmicutes in the human intestine.

[1] = system: Eubacterium rectale and Clostridium coccoides group; test: Faecal fermentation in dialysis tubes, FISH with Erec482 probe; assay type: cell-based; settings: t = 72 h versus t = 0
Experimental: as §1, §2, §3, §4

Q: Which results are given for `CCCCCCCCCCCCC/C=C/[C@@H](O)[C@@H](N)CO` [Number 1, D-sphingosine]?
A: change in bifidobacteria (in words) (Bifidobacteria): increase; change in Clostridia and Eubacteria, largest group of intestinal Firmicutes (in words) [1]: decrease

From patent US20110034407A1, “USE OF SPHINGOMYELIN AND NON-DIGESTIBLE CARBOHYDRATES FOR IMPROVING INTESTINAL MICROBIOTA” (N. V. Nutricia, priority 2007, published 2011)
